Measured values reported in ChEMBL document CHEMBL3817807, “Sequence-specific DNA binding by long hairpin pyrrole-imidazole polyamides containing an 8-amino-3,6-dioxaoctanoic acid unit” (Bioorg Med Chem, 2016).
Values after ≈ are worked out from the molar mass of the structure shown. Values belong to the molecule of their own block, whether it stands above or below them. Active and inactive are the calls of the source. The rule behind the calls is not given here.

How the values were obtained:
[1] = Binding affinity to TGTCAGCCT oligonucleotide DNA sequence (unknown origin) at 50 nM incubated for 16 hrs by PCR based Bind-n-Seq analysis
[2] = Binding affinity to TGGCAGACA oligonucleotide DNA sequence (unknown origin) at 50 nM incubated for 16 hrs by PCR based Bind-n-Seq analysis
[3] = Binding affinity to AGTCAGCCT oligonucleotide DNA sequence (unknown origin) at 50 nM incubated for 16 hrs by PCR based Bind-n-Seq analysis
[4] = Binding affinity to TGGCAGACT oligonucleotide DNA sequence (unknown origin) at 50 nM incubated for 16 hrs by PCR based Bind-n-Seq analysis
[5] = Binding affinity to ATGTCTGCC oligonucleotide DNA sequence (unknown origin) at 50 nM incubated for 16 hrs by PCR based Bind-n-Seq analysis
[6] = Binding affinity to AGTCGGCCT oligonucleotide DNA sequence (unknown origin) at 50 nM incubated for 16 hrs by PCR based Bind-n-Seq analysis
[7] = Binding affinity to AGTCTGCCT oligonucleotide DNA sequence (unknown origin) at 50 nM incubated for 16 hrs by PCR based Bind-n-Seq analysis
[8] = Binding affinity to TTGTCGGCC oligonucleotide DNA sequence (unknown origin) at 50 nM incubated for 16 hrs by PCR based Bind-n-Seq analysis
[9] = Binding affinity to AGGCAGACT oligonucleotide DNA sequence (unknown origin) at 50 nM incubated for 16 hrs by PCR based Bind-n-Seq analysis
[10] = Binding affinity to TAGTCGGCC oligonucleotide DNA sequence (unknown origin) at 50 nM incubated for 16 hrs by PCR based Bind-n-Seq analysis
[11] = Binding affinity to 5'-biotin labeled GCGAGGCAGACACGCTTTTGCGTGTCTGCCTCGC-3' DNA (unknown origin) assessed as association rate by SPR analysis
[12] = Binding affinity to 5'-biotin labeled GCGAGGCAGACACGCTTTTGCGTGTCTGCCTCGC-3' DNA (unknown origin) assessed as dissociation rate by SPR analysis
[13] = Binding affinity to 5'-biotin labeled GCGAGGCAGACACGCTTTTGCGTGTCTGCCTCGC-3' DNA (unknown origin) by SPR analysis
[14] = Aqueous solubility of the compound […] assessed as saturation concentration by nanodrop analysis; type: physicochemical
[15] = Drug uptake in human MDA-MB-231 cell nucleus at 10 uM after 72 hrs by FITC/Hoechst 33342-staining based confocal microscopic analysis; type: ADME; conditions: mda-mb-231, 72 h
[16] = Binding affinity to GGGCAGTCA oligonucleotide DNA sequence (unknown origin) at 50 nM incubated for 16 hrs by PCR based Bind-n-Seq analysis
[17] = Binding affinity to GAGTCTCCC oligonucleotide DNA sequence (unknown origin) at 50 nM incubated for 16 hrs by PCR based Bind-n-Seq analysis
[18] = Binding affinity to CTCTCTGCA oligonucleotide DNA sequence (unknown origin) at 50 nM incubated for 16 hrs by PCR based Bind-n-Seq analysis
[19] = Binding affinity to ACAGCCTCG oligonucleotide DNA sequence (unknown origin) at 50 nM incubated for 16 hrs by PCR based Bind-n-Seq analysis
[20] = Binding affinity to GTCTCCGAA oligonucleotide DNA sequence (unknown origin) at 50 nM incubated for 16 hrs by PCR based Bind-n-Seq analysis
[21] = Binding affinity to ATCGGCAGA oligonucleotide DNA sequence (unknown origin) at 50 nM incubated for 16 hrs by PCR based Bind-n-Seq analysis
[22] = Binding affinity to AGGCTCTCA oligonucleotide DNA sequence (unknown origin) at 50 nM incubated for 16 hrs by PCR based Bind-n-Seq analysis
[23] = Binding affinity to AATTTACCT oligonucleotide DNA sequence (unknown origin) at 50 nM incubated for 16 hrs by PCR based Bind-n-Seq analysis
[24] = Binding affinity to GTGAGCCTA oligonucleotide DNA sequence (unknown origin) at 50 nM incubated for 16 hrs by PCR based Bind-n-Seq analysis
[25] = Binding affinity to GGGCTAGAC oligonucleotide DNA sequence (unknown origin) at 50 nM incubated for 16 hrs by PCR based Bind-n-Seq analysis
[26] = Binding affinity to AGGCAGACA oligonucleotide DNA sequence (unknown origin) at 50 nM incubated for 16 hrs by PCR based Bind-n-Seq analysis
[27] = Binding affinity to AGACTGACA oligonucleotide DNA sequence (unknown origin) at 50 nM incubated for 16 hrs by PCR based Bind-n-Seq analysis
[28] = Binding affinity to TGGCTAACA oligonucleotide DNA sequence (unknown origin) at 50 nM incubated for 16 hrs by PCR based Bind-n-Seq analysis
[29] = Binding affinity to AGACAGTCA oligonucleotide DNA sequence (unknown origin) at 50 nM incubated for 16 hrs by PCR based Bind-n-Seq analysis
[30] = Binding affinity to AGGCTTACA oligonucleotide DNA sequence (unknown origin) at 50 nM incubated for 16 hrs by PCR based Bind-n-Seq analysis
[31] = Binding affinity to TGGTAGACA oligonucleotide DNA sequence (unknown origin) at 50 nM incubated for 16 hrs by PCR based Bind-n-Seq analysis
[32] = Binding affinity to ATGCAGACA oligonucleotide DNA sequence (unknown origin) at 50 nM incubated for 16 hrs by PCR based Bind-n-Seq analysis
[33] = Binding affinity to ATGCAGTCA oligonucleotide DNA sequence (unknown origin) at 50 nM incubated for 16 hrs by PCR based Bind-n-Seq analysis
[34] = Binding affinity to AGGCTGATA oligonucleotide DNA sequence (unknown origin) at 50 nM incubated for 16 hrs by PCR based Bind-n-Seq analysis
[35] = Binding affinity to CGGCTAACA oligonucleotide DNA sequence (unknown origin) at 50 nM incubated for 16 hrs by PCR based Bind-n-Seq analysis

Activity [1]: Active | Activity [2]: Active | Activity [3]: Active | Activity [4]: Active | Activity [5]: Active | Activity [6]: Active | Activity [7]: Active | Activity [8]: Active | Activity [9]: Active | Activity [10]: Active
Compound: CC(=O)Nc1cn(C)c(C(=O)Nc2cn(C)c(C(=O)NCCOCCOCC(=O)Nc3cn(C)c(C(=O)Nc4cc(C(=O)Nc5cc(C(=O)NCCCC(=O)Nc6cn(C)c(C(=O)Nc7cc(C(=O)NCCOCCOCC(=O)Nc8cn(C)c(C(=O)Nc9cc(C(=O)Nc%10cc(C(=O)NCCC(=O)NCCCN(C)CCCNC(=O)CCOCCOCCOCCOCCOCCOCCOCCOCCOCCOCCOCCOCCNC(=O)CCCC[C@@H]%11SC[C@@H]%12NC(=O)N[C@@H]%12%11)n(C)c%10)n(C)c9)n8)n(C)c7)n6)n(C)c5)n(C)c4)n3)n2)n1

Ka [11]: 1.8 ×10⁴ /Ms | Kd [12]: 3 ×10⁻⁴ /s | Kd [13]: 16 nM | solubility [14]: 13.9 mM (≈ 25.9 mg/mL)
Compound: CC(=O)Nc1cn(C)c(C(=O)Nc2cn(C)c(C(=O)NCCOCCOCC(=O)Nc3cn(C)c(C(=O)Nc4cc(C(=O)Nc5cc(C(=O)NCCCC(=O)Nc6cn(C)c(C(=O)Nc7cc(C(=O)NCCOCCOCC(=O)Nc8cn(C)c(C(=O)Nc9cc(C(=O)Nc%10cc(C(=O)NCCC(=O)NCCCN(C)CCCN)n(C)c%10)n(C)c9)n8)n(C)c7)n6)n(C)c5)n(C)c4)n3)n2)n1

Ka [11]: 1 ×10⁵ /Ms | Kd [12]: 1.8 ×10⁻³ /s | Kd [13]: 18 nM | solubility [14]: 12.2 mM (≈ 23.3 mg/mL)
Compound: CC(=O)Nc1cn(C)c(C(=O)Nc2cn(C)c(C(=O)NCCOCCOCC(=O)Nc3cn(C)c(C(=O)Nc4cc(C(=O)Nc5cc(C(=O)NCCCC(=O)Nc6cn(C)c(C(=O)Nc7cc(C(=O)Nc8cc(C(=O)NCCC(=O)Nc9cn(C)c(C(=O)Nc%10cc(C(=O)Nc%11cc(C(=O)NCCC(=O)NCCCN(C)CCCN)n(C)c%11)n(C)c%10)n9)n(C)c8)n(C)c7)n6)n(C)c5)n(C)c4)n3)n2)n1

Ka [11]: 2.4 ×10⁵ /Ms | Kd [12]: 1.4 ×10⁻³ /s | Kd [13]: 5.9 nM | solubility [14]: 9.1 mM (≈ 17.8 mg/mL)
Compound: CC(=O)Nc1cn(C)c(C(=O)Nc2cn(C)c(C(=O)Nc3cc(C(=O)NCCC(=O)Nc4cn(C)c(C(=O)Nc5cc(C(=O)Nc6cc(C(=O)NCCCC(=O)Nc7cn(C)c(C(=O)Nc8cc(C(=O)Nc9cc(C(=O)NCCC(=O)Nc%10cn(C)c(C(=O)Nc%11cc(C(=O)Nc%12cc(C(=O)NCCC(=O)NCCCN(C)CCCN)n(C)c%12)n(C)c%11)n%10)n(C)c9)n(C)c8)n7)n(C)c6)n(C)c5)n4)n(C)c3)n2)n1

Ka [11]: 1.3 ×10⁵ /Ms | Kd [12]: 1.9 ×10⁻³ /s | Kd [13]: 15 nM
Compound: CC(=O)Nc1cn(C)c(C(=O)Nc2cn(C)c(C(=O)NCCC(=O)NCCC(=O)Nc3cn(C)c(C(=O)Nc4cc(C(=O)Nc5cc(C(=O)NCCCC(=O)Nc6cn(C)c(C(=O)Nc7cc(C(=O)Nc8cc(C(=O)NCCC(=O)Nc9cn(C)c(C(=O)Nc%10cc(C(=O)Nc%11cc(C(=O)NCCC(=O)NCCCN(C)CCCN)n(C)c%11)n(C)c%10)n9)n(C)c8)n(C)c7)n6)n(C)c5)n(C)c4)n3)n2)n1

Drug uptake [15]: Active
Compound: CC(=O)Nc1cn(C)c(C(=O)Nc2cn(C)c(C(=O)Nc3cc(C(=O)NCCC(=O)Nc4cn(C)c(C(=O)Nc5cc(C(=O)Nc6cc(C(=O)NCCCC(=O)Nc7cn(C)c(C(=O)Nc8cc(C(=O)Nc9cc(C(=O)NCCC(=O)Nc%10cn(C)c(C(=O)Nc%11cc(C(=O)Nc%12cc(C(=O)NCCC(=O)NCCCN(C)CCCNC(=S)Nc%13ccc%14c(c%13)C(=O)OC%14%13c%14ccc(O)cc%14Oc%14cc(O)ccc%14%13)n(C)c%12)n(C)c%11)n%10)n(C)c9)n(C)c8)n7)n(C)c6)n(C)c5)n4)n(C)c3)n2)n1

Activity [16]: Active | Activity [17]: Active | Activity [18]: Active | Activity [19]: Active | Activity [20]: Active | Activity [21]: Active | Activity [22]: Active | Activity [23]: Active | Activity [24]: Active | Activity [25]: Active
Compound: CC(=O)Nc1cn(C)c(C(=O)Nc2cn(C)c(C(=O)NCCC(=O)NCCC(=O)Nc3cn(C)c(C(=O)Nc4cc(C(=O)Nc5cc(C(=O)NCCCC(=O)Nc6cn(C)c(C(=O)Nc7cc(C(=O)Nc8cc(C(=O)NCCC(=O)Nc9cn(C)c(C(=O)Nc%10cc(C(=O)Nc%11cc(C(=O)NCCC(=O)NCCCN(C)CCCNC(=O)CCOCCOCCOCCOCCOCCOCCOCCOCCOCCOCCOCCOCCNC(=O)CCCC[C@@H]%12SC[C@@H]%13NC(=O)N[C@@H]%13%12)n(C)c%11)n(C)c%10)n9)n(C)c8)n(C)c7)n6)n(C)c5)n(C)c4)n3)n2)n1

Activity [26]: Active | Activity [27]: Active | Activity [28]: Active | Activity [29]: Active | Activity [30]: Active | Activity [31]: Active | Activity [32]: Active | Activity [33]: Active | Activity [34]: Active | Activity [35]: Active
Compound: CC(=O)Nc1cn(C)c(C(=O)Nc2cn(C)c(C(=O)Nc3cc(C(=O)NCCC(=O)Nc4cn(C)c(C(=O)Nc5cc(C(=O)Nc6cc(C(=O)NCCCC(=O)Nc7cn(C)c(C(=O)Nc8cc(C(=O)Nc9cc(C(=O)NCCC(=O)Nc%10cn(C)c(C(=O)Nc%11cc(C(=O)Nc%12cc(C(=O)NCCC(=O)NCCCN(C)CCCNC(=O)CCOCCOCCOCCOCCOCCOCCOCCOCCOCCOCCOCCOCCNC(=O)CCCC[C@@H]%13SC[C@@H]%14NC(=O)N[C@@H]%14%13)n(C)c%12)n(C)c%11)n%10)n(C)c9)n(C)c8)n7)n(C)c6)n(C)c5)n4)n(C)c3)n2)n1

Drug uptake [15]: Active
Compound: CC(=O)Nc1cn(C)c(C(=O)Nc2cn(C)c(C(=O)NCCOCCOCC(=O)Nc3cn(C)c(C(=O)Nc4cc(C(=O)Nc5cc(C(=O)NCCCC(=O)Nc6cn(C)c(C(=O)Nc7cc(C(=O)NCCOCCOCC(=O)Nc8cn(C)c(C(=O)Nc9cc(C(=O)Nc%10cc(C(=O)NCCC(=O)NCCCN(C)CCCNC(=S)Nc%11ccc%12c(c%11)C(=O)OC%12%11c%12ccc(O)cc%12Oc%12cc(O)ccc%12%11)n(C)c%10)n(C)c9)n8)n(C)c7)n6)n(C)c5)n(C)c4)n3)n2)n1

Drug uptake [15]: Active
Compound: CC(=O)Nc1cn(C)c(C(=O)Nc2cn(C)c(C(=O)NCCOCCOCC(=O)Nc3cn(C)c(C(=O)Nc4cc(C(=O)Nc5cc(C(=O)NCCCC(=O)Nc6cn(C)c(C(=O)Nc7cc(C(=O)Nc8cc(C(=O)NCCC(=O)Nc9cn(C)c(C(=O)Nc%10cc(C(=O)Nc%11cc(C(=O)NCCC(=O)NCCCN(C)CCCNC(=S)Nc%12ccc%13c(c%12)C(=O)OC%13%12c%13ccc(O)cc%13Oc%13cc(O)ccc%13%12)n(C)c%11)n(C)c%10)n9)n(C)c8)n(C)c7)n6)n(C)c5)n(C)c4)n3)n2)n1

Ka [11]: 1 ×10⁴ /Ms | Kd [12]: 4.5 ×10⁻³ /s | Kd [13]: 250 nM
Compound: CC(=O)Nc1cn(C)c(C(=O)Nc2cn(C)c(C(=O)Nc3cc(C(=O)NCCC(=O)Nc4cn(C)c(C(=O)Nc5cc(C(=O)Nc6cc(C(=O)NCCCC(=O)Nc7cn(C)c(C(=O)Nc8cc(C(=O)NCCOCCOCC(=O)Nc9cn(C)c(C(=O)Nc%10cc(C(=O)Nc%11cc(C(=O)NCCC(=O)NCCCN(C)CCCN)n(C)c%11)n(C)c%10)n9)n(C)c8)n7)n(C)c6)n(C)c5)n4)n(C)c3)n2)n1
